Type in all cases: cell-based, human
Data set [1] concerns Staufen1. In words: Western blot of Staufen1 in normal and SCA2 LB cells and SCA2 fibroblasts after siRNA. The settings on record: siRNA electroporation, 4 days. The source says: (§1) The siRNAs used in this study were: All Star Negative Control siRNA (Qiagen Inc., USA; Cat #1027280), siATXN2 [Hs_ATXN2_2, (Qiagen Inc., USA; Cat #SI00308196), human siSTAU1: 5′-CCUAUAACUACAACAUGAGdTdT-3′ (SEQ ID NO: 3) and mouse siStau1: 5′-CAACUGUACUACCUUUCCAdTdT-3′ (SEQ ID NO: 31). Staufen1 siRNA oligonucleotides were synthesized by Invitrogen Inc., USA. The oligonucleotides were deprotected and the complementary strands were annealed.
(§2) For over-expression of recombinant proteins, SH-SY5Y cells were seeded on 100 mm or 6 well dishes and incubated overnight. The cells were then transfected with plasmid DNAs and harvested 48 hrs post-transfection and processed as two aliquots for protein and RNA analyses. For siRNA experiments, cells were transfected with siRNAs using lipofectamine 2000, and lymphoblastoid B cells (1×10^6) were electroporated with siRNAs using the Neon transfection system (Invitrogen Inc., USA) according to the manufacturer's protocol and seeded on 6 well plates.
(§3) Preparation of protein lysates and western blot analyses. […] Signals were detected by using the Immobilon Western Chemiluminescent HRP Substrate (Millipore Inc., USA; cat #WBKLSO100) according to the manufacturer's protocol. The intensity of proteins was determined by using the ImageJ software analyses system and the relative protein abundances were expressed as ratios to β-actin.

Another data set has as its system PCP2 mRNA. Put plainly: qPCR of PCP2 transcript in LB cells and SCA2 fibroblasts after siRNA. As to conditions: Staufen1 siRNA.
Excerpt: as §1, §2
(§4) RNA expression analyses by Quantitative RT-PCR. […] Quantitative RT-PCR was performed in QuantStudio 12K (Life Technologies, Inc.; USA) with the Power SYBR Green PCRMaster Mix (Applied Biosystems Inc.; USA). […] The threshold cycle for each sample was chosen from the linear range and converted to a starting quantity by interpolation from a standard curve run on the same plate for each set of primers. […]

For the next data set, the system named is ATXN2 transcript. Put plainly: qPCR of ATXN2 transcript in LB cells after Staufen1 silencing. The settings on record: normal or SCA2-LB cells, Staufen1 siRNA.
Excerpt: as §1, §2, §4

In data set [2] the test system is autophagic pathway proteins (mTOR, P-mTOR, p62, LC3-II). Put plainly: Western blot of autophagic pathway proteins in SH-SY5Y and ATXN2-Q22/58 knock-in cells. As to conditions: for autophagic pathway proteins: ATXN2-Q22/58 knock-in cells, RNAi transfection. As for the experimental part: (§5) SH-SY5Y cells were cultured in standard DMEM with 10% FBS and 1X penicillin/streptomycin in 5% CO2. Transfection of STAU1 siRNA or STAU1 ASO was accomplished using Lipofectamine transfection reagent using standard conditions. Cells were harvested 3-5 days post transfection.
Protein extracts were prepared by suspending cell pellets in SDS-PAGE sample buffer (Laemmli sample buffer) followed by boiling for 5 min. Equal amount of the extracts were subjected to Western blot analysis to determine the steady-state levels of proteins using the indicated antibodies. Protein extracts were resolved by SDS-PAGE and transferred to Hybond P membranes (Amersham Bioscience Inc., USA). After blocking with 5% skim milk in 0.1% Tween 20/PBS, the membranes were incubated with primary antibodies in 5% skim milk in 0.1% Tween 20/PBS for 2 hrs at room temperature or overnight at 4° C. After several washes with 0.1% Tween 20/PBS, the membranes were incubated with the corresponding secondary antibodies conjugated with HRP in 5% skim milk in 0.1% Tween 20/PBS for 2 hrs at room temperature. Following three additional washes with 0.1% Tween 20/PBS, signals were detected by using the Immobilon Western Chemiluminescent HRP Substrate (Millipore Inc., USA; cat #WBKLSO100) according to the manufacturer's protocol. […] Secondary antibodies were horse anti-mouse IgG-HRP antibody (Vector laboratories, PI-2000), and goat anti-rabbit IgG-HRP antibody (Vector laboratories, PI-1000).
as §2
Preparation of protein lysates and western blot analyses. Cellular extracts were prepared by a single-step lysis method. […] Equal amounts of the extracts were used for western blot analyses. […] Only supernatants were used for western blotting. Protein extracts were resolved by SDS-PAGE and transferred to Hybond P membranes (Amersham Bioscience Inc., USA). After blocking with 5% skim milk in 0.1% Tween 20/PBS, the membranes were processed for immunostaining using corresponding primary and secondary antibodies. Signals were detected by using the Immobilon Western Chemiluminescent HRP Substrate (Millipore Inc., USA; cat #WBKLSO100) according to the manufacturer's protocol. The intensity of proteins was determined by using the ImageJ software analyses system and the relative protein abundances were expressed as ratios to β-actin.

Another data set relates to ATXN2. In words: Western blot of ATXN2 in ATXN2-Q22/58 KI cells after RNAi. As for the experimental part:
as §5
Protein extracts were prepared by suspending cell pellets in SDS-PAGE sample buffer (Laemmli sample buffer) followed by boiling for 5 min. Equal amount of the extracts were subjected to Western blot analysis to determine the steady-state levels of proteins using the indicated antibodies. Protein extracts were resolved by SDS-PAGE and transferred to Hybond P membranes (Amersham Bioscience Inc., USA). […] Following three additional washes with 0.1% Tween 20/PBS, signals were detected by using the Immobilon Western Chemiluminescent HRP Substrate (Millipore Inc., USA; cat #WBKLSO100) according to the manufacturer's protocol. […]
as §3

For data set [3], the system named is Staufen1. Put plainly: Western blot of Staufen1 in SH-SY5Y and ATXN2-Q22/58 knock-in cells. As to conditions: for STAU1 levels, expression relative to actin: SH-SY5Y-ATXN2 [Q22/Q22] cells, ASO at the indicated dose, western blotting. As for the experimental part: as §5
Protein extracts were prepared by suspending cell pellets in SDS-PAGE sample buffer (Laemmli sample buffer) followed by boiling for 5 min. Equal amount of the extracts were subjected to Western blot analysis to determine the steady-state levels of proteins using the indicated antibodies. Protein extracts were resolved by SDS-PAGE and transferred to Hybond P membranes (Amersham Bioscience Inc., USA). After blocking with 5% skim milk in 0.1% Tween 20/PBS, the membranes were incubated with primary antibodies in 5% skim milk in 0.1% Tween 20/PBS for 2 hrs at room temperature or overnight at 4° C. After several washes with 0.1% Tween 20/PBS, the membranes were incubated with the corresponding secondary antibodies conjugated with HRP in 5% skim milk in 0.1% Tween 20/PBS for 2 hrs at room temperature. Following three additional washes with 0.1% Tween 20/PBS, signals were detected by using the Immobilon Western Chemiluminescent HRP Substrate (Millipore Inc., USA; cat #WBKLSO100) according to the manufacturer's protocol. The antibodies used included ATXN2 mAb [(1:3000), BD Biosciences Inc.; cat #611378], rabbit anti-Staufen antibody (Novus biologicals Inc., NBP1-33202), SQSTM1/p62 antibody (Cell signaling, #5114), LC3B Antibody (Novus biologicals Inc., NB100-2220), mTOR antibody (Cell signaling, #2972), Phospho-mTOR (Ser2448) antibody (Cell signaling #2971), β-Actin mAb conjugated with HRP [(1:10,000), Sigma Inc.; cat #A3858]. Secondary antibodies were horse anti-mouse IgG-HRP antibody (Vector laboratories, PI-2000), and goat anti-rabbit IgG-HRP antibody (Vector laboratories, PI-1000).
as §2, §3

The next data set deals with p21 Waf1/Cip1. Put plainly: Cycloheximide (CHX)-chase assay, p21 Waf1/Cip1 control, western blot. As to conditions: 4 hr after CHX treatment (25 μg/ml), both normal and SCA2 fibroblasts. Here is the method: (§6) To identify the underlying mechanism of ATXN2 polyQ expansion-mediated Staufen1 abundance, Staufen1 transcript levels were examined in normal and SCA2 fibroblasts. […] To test this, comparative protein stability for Staufen1 was measured by cycloheximide (CHX)-chase assay in normal and SCA2 fibroblasts. Relative Staufen1 levels were analyzed from harvested normal and SCA2 fibroblast extracts. (FIGS. 4B and 4C).
(§7) Preparation of protein lysates and western blot analyses. Cellular extracts were prepared by a single-step lysis method. The harvested cells were suspended in SDS-PAGE sample buffer [Laemmli sample buffer (Bio-Rad Inc.; cat #161-0737)] and then boiled for 5 min. Equal amounts of the extracts were used for western blot analyses. Cerebellar protein extracts were prepared by homogenization of mouse cerebella in extraction buffer [25 mM Tris-HCl pH 7.6, 300 mM NaCl, 0.5% Nonidet P-40, 2 mM EDTA, 2 mM MgCl2, 0.5 M urea and protease inhibitors (Sigma Inc.; cat #P-8340)] followed by centrifugation at 4° C. for 20 min at 14,000 RPM. […] Signals were detected by using the Immobilon Western Chemiluminescent HRP Substrate (Millipore Inc., USA; cat #WBKLSO100) according to the manufacturer's protocol. The intensity of proteins was determined by using the ImageJ software analyses system and the relative protein abundances were expressed as ratios to β-actin.

The test system of data set [4] is Staufen1. In words: Cycloheximide (CHX)-chase assay, Staufen1 protein stability, western blot. Here is the method: as §6, §7
The test system of the next data set is STAU1. Put plainly: Sodium arsenite-induced stress, STAU1 immunoblotting in fibroblasts. The source says:
Cell culture and Transfections. Four normal skin fibroblasts (ATXN2 with CAG22) and five SCA2 patient-derived skin FBs (ATXN2 with CAG repeats; 35, 35, 35, 42, and 45), were maintained in DMEM medium containing 10% fetal bovine serum. Two normal (ATXN2 with CAG22) and three SCA2 patient-derived (ATXN2 with expanded CAG repeats; 40, 46 and 52) Epstein-Barr virus (EBV)-immortalized LBCs were maintained in RPMI medium containing 15% fetal bovine serum. All subjects gave written consent and all procedures were approved by the Institutional Review Board at the University of Utah. The following primary human fibroblasts were obtained from the Coriell Cell Repositories (Camden, NJ, USA): ALS patient (TDP-43G298S mutation)(ND32947), Huntington disease (HD) patient (ND33392) and SCA3 (Machado-Joseph disease, MJD) patient (GM06153). TDP-43G298S, HD, SCA3, and SH-SY5Y cells were maintained in DMEM medium containing 10% fetal bovine serum.
Preparation of protein lysates and western blot analyses. Cellular extracts were prepared by a single-step lysis method. […] Signals were detected by using the Immobilon Western Chemiluminescent HRP Substrate (Millipore Inc., USA; cat #WBKLSO100) according to the manufacturer's protocol. The intensity of proteins was determined by using the ImageJ software analyses system and the relative protein abundances were expressed as ratios to β-actin.

The mark [5] stands for this setting: SH-SY5Y and ATXN2-Q22/58 knock-in cells, Baf dose-wise, 6 h, vs untreated.

Entries after “also recorded” stand apart in the source; their conditions may differ. d = 2'-deoxy (DNA); r = 2'-OH (RNA)

Turning to “5′-CCUAUAACUACAACAUGAGdTdT-3′ (sense CCUAUAACUACAACAUGAGTT; sugars from the 5' end r19 d2, backbone not given here) [siSTAU1, siRNA directed against human Staufen1, synthesized by Invitrogen]”, the “depletion of Staufen1” value in the data set with Staufen1 [1] (SCA2-LB (ATXN2-Q22/52) cells) is approximately 83%. The “silencing of staufen1” value in the data set on Staufen1 [1] (normal LB cells) was approximately 81%. Besides, in the data set on PCP2 mRNA (SCA2-LB (ATXN2-Q22/52) cells, qPCR), the “PCP2 mRNA level” value is given as “restored PCP2 mRNA level to a level similar to that seen in normal LB cells treated with control siRNA”. For the same compound, in the data set on PCP2 mRNA (normal LB cells, vs control siRNA), the “PCP2 mRNA levels” value is listed as “did not show significant alteration of PCP2 mRNA levels”. Further, in the data set with ATXN2 transcript, the ATXN2 transcript levels result is “does not show any effect on ATXN2 transcript levels”. For the same compound, the autophagic pathway proteins entry in data set [2] (listed as STAU1 RNAi) is reported as “restored autophagic pathway proteins”; in data set [2] (listed as STAU1 siRNA) it was “restoration of autophagic pathway proteins”. For the same compound, the ATXN2 steady-state levels entry was “did not change ATXN2 levels” in the data set with ATXN2 (listed as STAU1-RNAi) and “without affecting ATXN2 steady-state levels” in the data set on ATXN2 (listed as STAU1 siRNA).

As for “5′-CTGGAAAGATAGTCCAGTTG-3′ (listed as DNA, chemistry not given here; listed as Homo sapiens) [STAU1 ASO-B, antisense oligonucleotide targeting Staufen1]”, the “STAU1 levels, expression relative to actin” value with Staufen1 [3] is reported as “reduced STAU1 levels”.

For the compound “5′-TCTCATGTTGTAGTTATAGG-3′ (listed as DNA, chemistry not given here; listed as Homo sapiens) [STAU1 ASO-A, antisense oligonucleotide targeting Staufen1]”, the “STAU1 levels, expression relative to actin” value in the data set with Staufen1 [3] is listed as “reduced STAU1 levels”.

Turning to `CO/C1=C\C(C)=C\[C@@H](C)[C@@H](O)[C@@H](C)C/C(C)=C/C=C/[C@H](OC)[C@@H]([C@@H](C)[C@@H](O)[C@H](C)[C@@]2(O)C[C@@H](O)[C@H](C)[C@@H](C(C)C)O2)OC1=O` [Bafilomycin Al, bafilomycin Al, reference compound], the “Staufen1 levels / clearance” value with Staufen1 [3] (setting [5]) is “dose-wise increased levels; also recorded: lowers Staufen1 clearance”. The LC3-II level entry in [2] (ATXN2-Q22/58 KI cells, Baf treatment) is listed as “slight elevation of LC3-II”. Moreover, in [2] (setting [5]), the “processed LC3-II and p62 levels” value was “dose-wise increased levels”.

As to `C[C@@H]1C[C@@H]([C@H](O)CC2CC(=O)NC(=O)C2)C(=O)[C@@H](C)C1` [CHX, cycloheximide], the “reduction of p21 Waf1/Cip1 levels” value in the data set with p21 Waf1/Cip1 is on record as approximately 90%. In the data set on Staufen1 [4] (SCA2 fibroblasts, CHX treatment), the “Staufen1 protein expression levels” value is given as “relatively little decrease”. Also, in the data set on Staufen1 [4] (normal fibroblasts, 4 hr after CHX treatment), the Staufen1 levels result is recorded as “reduced”.

For `O=[As]O` [sodium arsenite], the “STAU1 level in response to arsenite” value in the data set with STAU1 (HD and SCA3 patient fibroblasts, 1.0 mM, 0, 3 and 6 hr) is “early and exaggerated responses; also recorded: exaggerated increases in STAU1 levels”; in the data set on STAU1 (normal fibroblasts (implied), only visible after 6 hr treatment), “modest STAU1 increase”.

The record behind these values is US12409189B2, “STAUFEN1 agents and associated methods” (University of Utah Research Foundation, priority 2016, dated 2025).
